Experimental data taken from patent US20190083521A1, “COMBINATION THERAPY FOR TREATING CANCER” (Epizyme, Inc., priority 2014, published 2019).
Read-outs that look alike come from different tables or passages of the source.

Assays:
[1] = tested on: MOLM-13 (MLL-AF9) cells; test: Example 7 primary screen: 300 nM EPZ-5676 pre-treatment, second compound 72 h, ATPLite, GI100 shift; assay type: cell-based, human; settings: MOLM-13 (MLL-AF9); 300 nM EPZ-5676 pre-treatment vs DMSO
Description: (§1) Cells were split using EPZ-5676 or DMSO containing growth media and further incubated for an additional 3-day pre-treatment time. Cells were finally seeded in growth media containing EPZ-5676 or DMSO in 384-well plates at 500 cell/well density. Cells were then equilibrated in incubators for 24 hours before treatment with a second compound. Treated assay plates were incubated with a second compound for 72 hours. After this time, plates were developed for endpoint analysis using ATPLite to measure ATP content, which is used as an indicator of cell viability.
(§2) “N/D” means the GI100 of the second compound could not be determined for both conditions and “-” means not tested.
(§3) Growth Inhibition (GI) as a measure of cell viability: The cell viability of vehicle was measured at the time of dosing the second agent (T0) and after seventy-two hours (T72). A GI reading of 0% represents no growth inhibition—cells treated with test compound as compared to T72 vehicle signals were measured. […] A GI 200% represents complete death of all cells in the culture well. Compounds reaching an activity plateau of GI 200% are considered cytotoxic. GI is calculated by applying the following test and equation: […]

[2] = tested on: SKM-1 (non-MLLr) cells; test: as above; assay type: cell-based, human; settings: SKM-1 (non-MLLr); 300 nM EPZ-5676 pre-treatment vs DMSO
Description: as §1, §2, §3

[3] = tested on: OCI-AML-4 (MLL-ENL) cells; test: as above; assay type: cell-based; settings: OCI-AML-4 (MLL-ENL); 300 nM EPZ-5676 pre-treatment vs DMSO
Description: as §1, §2, §3

[4] = tested on: MOLM-13 (MLL-AF9) cells; test: Example 7 retest: EPZ-5676 pre-treatment, second compound 72 h, Cell Titer Glo, growth inhibition; assay type: cell-based, human; set-up: GI100: unit not given here; settings: for GI50: Homo sapiens; for Combination result with EPZ-5676, Retest: 150 nM EPZ-5676 pre-treatment vs DMSO
Description: (§4) Cells were then treated with a second compound for 72 hours. After this time, plates were developed for endpoint analysis using Cell Titer Glo to measure ATP content, which is used as an indicator of cell viability.
as §2
as §3, with “(T72).” for “(T72). A GI reading of 0% represents no growth inhibition—cells treated with test compound as compared to T72 vehicle signals were measured.”

[5] = tested on: SKM-1 (non-MLLr) cells; test: as above; assay type: cell-based, human; set-up: GI100: unit not given here; settings: for Combination result with EPZ-5676, Retest: 300 nM EPZ-5676 pre-treatment vs DMSO
Description: as §4, §2
as §3, with “(T72).” for “(T72). A GI reading of 0% represents no growth inhibition—cells treated with test compound as compared to T72 vehicle signals were measured.”

[6] = tested on: OCI-AML-4 (MLL-ENL) cells; test: as above; assay type: cell-based; settings: for Combination result with EPZ-5676, Retest: 300 nM EPZ-5676 pre-treatment vs DMSO
Description: as §4, §2
as §3, with “(T72).” for “(T72). A GI reading of 0% represents no growth inhibition—cells treated with test compound as compared to T72 vehicle signals were measured.”

[7] = tested on: THP-1 (MLL-AF9) cells; test: as above; assay type: cell-based; set-up: GI100: unit not given here; settings: NRAS G12D
Description: as §1, with “96-well plates.” for “384-well plates at 500 cell/well density.”, “treated” for “equilibrated in incubators for 24 hours before treatment with a second compound. Treated assay plates were incubated”, “Cell Titer Glo” for “ATPLite”
as §2, §3

[8] = tested on: ML-2 (MLL-AF6) cells; test: as above; assay type: cell-based; set-up: GI100: unit not given here
Description: as §4, §2
as §3, with “(T72).” for “(T72). A GI reading of 0% represents no growth inhibition—cells treated with test compound as compared to T72 vehicle signals were measured.”

[9] = tested on: RS4-11 (MLL-AF4) cells; test: as above; assay type: cell-based; set-up: GI100: unit not given here; settings: for GI50: Homo sapiens
Description: as §4, §2
as §3, with “(T72).” for “(T72). A GI reading of 0% represents no growth inhibition—cells treated with test compound as compared to T72 vehicle signals were measured.”

[10] = MOLM-13 (MLL-AF9), Ras mutation status: None known, second compound, 72 h
[11] = MOLM-13 (MLL-AF9), Ras mutation status: None known
[12] = SKM-1 (non-MLLr), KRAS K117N (homo)
[13] = SKM-1 (non-MLLr), KRAS K117N (homo), second compound, 72 h
[14] = OCI-AML-4 (MLL-ENL), NRAS Q61R (het)
[15] = OCI-AML-4 (MLL-ENL), NRAS Q61R (het), second compound, 72 h
[16] = ML-2 (MLL-AF6), KRAS A146T (het), second compound, 72 h
[17] = RS4-11 (MLL-AF4), Ras mutation status: None known, second compound, 72 h

Row | Compound | Combination result with EPZ-5676, Primary screen [1] | Combination result with EPZ-5676, Primary screen [2] | Combination result with EPZ-5676, Primary screen [3] | GI50 [4, 10] [nM] | Combination result with EPZ-5676, Retest ([4]; MOLM-13 (MLL-AF9)) | Result (combination with EPZ-5676) [4, 11] | Combination result with EPZ-5676, Retest ([5]; SKM-1 (non-MLLr)) | Result (combination with EPZ-5676) [5, 12] | GI50 [5, 13] [nM] | Combination result with EPZ-5676, Retest ([6]; OCI-AML-4 (MLL-ENL)) | Result (combination with EPZ-5676) [6, 14] | GI50 [6, 15] [nM] | GI50 [7] [nM] | GI50 [8, 16] [nM] | GI50 [9, 17] [nM] | further results
1 | Cn1cnc2c(F)c(Nc3ccc(Br)cc3Cl)c(C(=O)NOCCO)cc21 [Selumetinib (AZD6244), Selumetinib] | Synergy (considered synergistic if the GI100 (Growth inhibition 100) value of the second compound decreased by 2-fold or more when EPZ-5676 was added as compared to the DMSO control) | Synergy (considered synergistic if the GI100 (Growth inhibition 100) value of the second compound decreased by 2-fold or more when EPZ-5676 was added as compared to the DMSO control) | Synergy (considered synergistic if the GI100 (Growth inhibition 100) value of the second compound decreased by 2-fold or more when EPZ-5676 was added as compared to the DMSO control) | 1250 | Synergy (considered synergistic if the GI100 (Growth inhibition 100) value of the second compound decreased by 2-fold or more when EPZ-5676 was added as compared to the DMSO control) | Synergy (considered synergistic if the GI100 (Growth inhibition 100) value of the second compound decreased by 2-fold or more when EPZ-5676 was added as compared to the DMSO control) | Synergy (considered synergistic if the GI100 (Growth inhibition 100) value of the second compound decreased by 2-fold or more when EPZ-5676 was added as compared to the DMSO control) | Synergy (considered synergistic if the GI100 (Growth inhibition 100) value of the second compound decreased by 2-fold or more when EPZ-5676 was added as compared to the DMSO control) | 20 | Synergy (considered synergistic if the GI100 (Growth inhibition 100) value of the second compound decreased by 2-fold or more when EPZ-5676 was added as compared to the DMSO control) | Synergy (considered synergistic if the GI100 (Growth inhibition 100) value of the second compound decreased by 2-fold or more when EPZ-5676 was added as compared to the DMSO control) | 116 | 160 | 40 | > 10000 | GI100 [4, 10]: 7.28; GI100 [5, 13]: 0.12; GI100 [6, 15]: 3.169; GI100 [7]: >10; GI100 [8, 16]: 0.93; GI100 [9, 17]: >10
2 | CC(=O)Nc1cccc(-n2c(=O)n(C3CC3)c(=O)c3c(Nc4ccc(I)cc4F)n(C)c(=O)c(C)c32)c1 [Trametinib] | Synergy (considered synergistic if the GI100 (Growth inhibition 100) value of the second compound decreased by 2-fold or more when EPZ-5676 was added as compared to the DMSO control) | Synergy (considered synergistic if the GI100 (Growth inhibition 100) value of the second compound decreased by 2-fold or more when EPZ-5676 was added as compared to the DMSO control) | Synergy (considered synergistic if the GI100 (Growth inhibition 100) value of the second compound decreased by 2-fold or more when EPZ-5676 was added as compared to the DMSO control) | 10 | Synergy (considered synergistic if the GI100 (Growth inhibition 100) value of the second compound decreased by 2-fold or more when EPZ-5676 was added as compared to the DMSO control) | Synergy (considered synergistic if the GI100 (Growth inhibition 100) value of the second compound decreased by 2-fold or more when EPZ-5676 was added as compared to the DMSO control) | Synergy (considered synergistic if the GI100 (Growth inhibition 100) value of the second compound decreased by 2-fold or more when EPZ-5676 was added as compared to the DMSO control) | Synergy (considered synergistic if the GI100 (Growth inhibition 100) value of the second compound decreased by 2-fold or more when EPZ-5676 was added as compared to the DMSO control) | 1 | Synergy (considered synergistic if the GI100 (Growth inhibition 100) value of the second compound decreased by 2-fold or more when EPZ-5676 was added as compared to the DMSO control) | Synergy (considered synergistic if the GI100 (Growth inhibition 100) value of the second compound decreased by 2-fold or more when EPZ-5676 was added as compared to the DMSO control) | 2 | 2 | 1 | > 10000 | GI100 [4]: 0.03; GI100 [5]: 0.004; GI100 [6]: 0.009; GI100 [8]: 0.001; Result (combination with EPZ-5676) ([8]; ML-2 (MLL-AF6), KRAS A146T (het)): Synergy (considered synergistic if the GI100 (Growth inhibition 100) value of the second compound decreased by 2-fold or more when EPZ-5676 was added as compared to the DMSO control); GI100 [9]: >10
